Assay results published in the supplement of paper PMC9663587.

Key:
[1] = compound: CCN1CCN(Cc2ccc(Nc3ncc(F)c(-c4cc(F)c5nc(C)n(C(C)C)c5c4)n3)nc2)CC1; test: GR value, 72 h; higher = faster growth (1 = untreated, <0 = killing);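 further: breast cancer and non-malignant breast epithelial lines, nine half-log doses, viable cells counted by Hoechst and LIVE/DEAD dye imaging versus time-zero plates and DMSO controls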
[2] = compound: CN(C)C/C=C/C(=O)Nc1ccc(C(=O)Nc2cccc(Nc3ncc(Cl)c(-c4c[nH]c5ccccc45)n3)c2)cc1 [THZ1]; test: as above
[3] = compound: CC(=O)c1c(C)c2cnc(Nc3ccc(N4CCN(CCOCCOCCOCCNC(=O)COc5cccc6c5C(=O)N(C5CCC(=O)NC5=O)C6=O)CC4)cn3)nc2n(C2CCCC2)c1=O [BSJ-03-123]; test: as above
[4] = compound: CN(C)C(=O)c1cc2cnc(Nc3ccc(N4CCNCC4)cn3)nc2n1C1CCCC1 [LEE011/Ribociclib]; test: as above
[5] = compound: C=CC(=O)Nc1ccc(C(=O)Nc2[nH]nc3c2CN(C(=O)N[C@H](CN(C)C)c2ccccc2)C3(C)C)cc1 [YKL-5-124]; test: as above
[6] = compound: T1, CN(C)C/C=C/C(=O)Nc1ccc(C(=O)N2CCC[C@@H](Nc3ncc(Cl)c(-c4c[nH]c5ccccc45)n3)C2)cc1 [THZ531]; test: as above
[7] = compound: CC(=O)c1c(C)c2cnc(Nc3ccc(N4CCNCC4)cn3)nc2n(C2CCCC2)c1=O; test: as above
[8] = compound: CCc1cnn2c(NCc3ccc[n+]([O-])c3)cc(N3CCCC[C@H]3CCO)nc12; test: as above
[9] = compound: Cc1cc(Nc2ncc(Cl)c(Nc3ccccc3S(=O)(=O)C(C)C)n2)c(OC(C)C)cc1C1CCNCC1 [Ceritinib/LDK378]
[10] = compound: CNCc1ccc(-c2[nH]c3cc(F)cc4c3c2CCNC4=O)cc1 [Rucaparib]
[11] = compound: T1, THZ531
[12] = compound: CN1CCN(C(=O)c2ccc3cc(CCNc4ncnc5ccc(C#N)cc45)ccc3c2)CC1 [senexin b]
[13] = compound: O=C1NC(=O)[C@@H](c2cn3c4c(cccc24)CCC3)[C@@H]1c1c[nH]c2ccccc12 [Tivantinib/ARQ197]
[14] = compound: CS(=O)(=O)N1CCN(Cc2cc3nc(-c4cccc5[nH]ncc45)nc(N4CCOCC4)c3s2)CC1 [Pictilisib/GDC0941]
[15] = compound: CN(C)C/C=C/C(=O)Nc1ccc(O[C@@H]2CCC[C@@H](Nc3ncc(Cl)c(-c4c[nH]c5ccccc45)n3)C2)cc1 [BSJ-01-175]
[16] = compound: C[C@@H]1COCCN1c1cc(C2([S@](C)(=N)=O)CC2)nc(-c2cc[nH]c3nccc2-3)n1 [AZD6738]
[17] = compound: CC(=O)O[C@H]1C(=O)[C@@]2(C)[C@H]([C@H](OC(=O)c3ccccc3)[C@]3(O)C[C@H](OC(=O)[C@H](O)[C@@H](NC(=O)c4ccccc4)c4ccccc4)C(C)=C1C3(C)C)[C@]1(OC(C)=O)CO[C@@H]1C[C@@H]2O [Paclitaxel]
[18] = compound: COc1cc2c(Oc3ccc4[nH]c(C)cc4c3F)ncnc2cc1OCCCN1CCCC1 [Cediranib/AZD2171]
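Wherever GR50, 72 h is given: breast cancer and non-malignant breast epithelial cell lines, Deep Dye Drop or Dye Drop imaging, nine half-log doses, GR normalized to time-zero plates and DMSO-only controls.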

Cell Line: MCF12A
- GR value ([1]; 0.001 µM): 0.987 GR
- GR value ([1]; 0.003162 µM): 0.945 GR
- GR value ([1]; 0.01 µM): 0.955 GR
- GR value ([1]; 0.03162 µM): 0.943 GR
- GR value ([1]; 0.1 µM): 0.872 GR
- GR value ([1]; 0.3162 µM): 0.822 GR
- GR value ([1]; 1 µM): 0.727 GR
- GR value ([1]; 3.162 µM): 0.616 GR
- GR value ([1]; 10 µM): 0.386 GR
- GR value ([2]; 0.0001 µM): 0.997 GR
- GR value ([2]; 0.0003162 µM): 0.989 GR
- GR value ([2]; 0.001 µM): 1 GR
- GR value ([2]; 0.003162 µM): 0.958 GR
- GR value ([2]; 0.01 µM): 0.984 GR
- GR value ([2]; 0.03162 µM): 0.851 GR
- GR value ([2]; 0.1 µM): 0.569 GR
- GR value ([2]; 0.3162 µM): 0.338 GR
- GR value ([2]; 1 µM): -0.312 GR
- GR value ([3]; 0.001 µM): 0.975 GR
- GR value ([3]; 0.003162 µM): 0.912 GR
- GR value ([3]; 0.01 µM): 0.971 GR
- GR value ([3]; 0.03162 µM): 0.952 GR
- GR value ([3]; 0.1 µM): 0.98 GR
- GR value ([3]; 0.3162 µM): 0.942 GR
- GR value ([3]; 1 µM): 0.883 GR
- GR value ([3]; 3.162 µM): 0.753 GR
- GR value ([3]; 10 µM): 0.126 GR
- GR value ([4]; 0.001 µM): 0.967 GR
- GR value ([4]; 0.003162 µM): 0.953 GR
- GR value ([4]; 0.01 µM): 0.948 GR
- GR value ([4]; 0.03162 µM): 0.927 GR
- GR value ([4]; 0.1 µM): 0.984 GR
- GR value ([4]; 0.3162 µM): 0.897 GR
- GR value ([4]; 1 µM): 0.867 GR
- GR value ([4]; 3.162 µM): 0.914 GR
- GR value ([4]; 10 µM): 0.792 GR
- GR value ([5]; 0.001 µM): 0.573 GR
- GR value ([5]; 0.003162 µM): 0.316 GR
- GR value ([5]; 0.01 µM): 0.235 GR
- GR value ([5]; 0.03162 µM): 0.17 GR
- GR value ([5]; 0.1 µM): 0.135 GR
- GR value ([5]; 0.3162 µM): 0.153 GR
- GR value ([5]; 1 µM): 0.131 GR
- GR value ([5]; 3.162 µM): 0.107 GR
- GR value ([5]; 10 µM): 0.0273 GR
- GR value ([6]; 0.0001 µM): 0.942 GR
- GR value ([6]; 0.0003162 µM): 1.02 GR
- GR value ([6]; 0.001 µM): 1 GR
- GR value ([6]; 0.003162 µM): 0.929 GR
- GR value ([6]; 0.01 µM): 1.01 GR
- GR value ([6]; 0.03162 µM): 0.967 GR
- GR value ([6]; 0.1 µM): 1 GR
- GR value ([6]; 0.3162 µM): 0.894 GR
- GR value ([6]; 1 µM): -0.0356 GR
- GR value ([7]; 0.0003162 µM): 1.04 GR
- GR value ([7]; 0.001 µM): 1.03 GR
- GR value ([7]; 0.003162 µM): 1.02 GR
- GR value ([7]; 0.01 µM): 0.974 GR
- GR value ([7]; 0.03162 µM): 0.921 GR
- GR value ([7]; 0.1 µM): 0.889 GR
- GR value ([7]; 0.3162 µM): 0.912 GR
- GR value ([7]; 1 µM): 0.758 GR
- GR value ([7]; 3.162 µM): 0.667 GR
- GR value ([8]; 0.0001 µM): 1.03 GR
- GR value ([8]; 0.0003162 µM): 0.99 GR
- GR value ([8]; 0.001 µM): 1.03 GR
- GR value ([8]; 0.003162 µM): 1.03 GR
- GR value ([8]; 0.01 µM): 1.08 GR
- GR value ([8]; 0.03162 µM): 0.685 GR
- GR value ([8]; 0.1 µM): -0.289 GR
- GR value ([8]; 1 µM): -0.327 GR
- GR50, 72 h [9]: 7.62 µM
- GR50, 72 h [10]: > 10 µM
- GR50, 72 h [11]: 0.632 µM
- GR50, 72 h [12]: > 10 µM
- GR50, 72 h [13]: 0.291 µM
- GR50, 72 h [14]: 6.67 µM
- GR50, 72 h [15]: 4.32 µM
- GR50, 72 h [16]: 3.06 µM
- GR50, 72 h [17]: 0.00577 µM
- GR50, 72 h [18]: > 10 µM

Cell Line: MDAMB175VII
- GR value ([1]; 0.001 µM): 0.725 GR
- GR value ([1]; 0.003162 µM): 0.505 GR
- GR value ([1]; 0.01 µM): 0.0712 GR
- GR value ([1]; 0.03162 µM): 0.105 GR
- GR value ([1]; 0.1 µM): 0.0173 GR
- GR value ([1]; 0.3162 µM): 0.0287 GR
- GR value ([1]; 1 µM): -0.0111 GR
- GR value ([1]; 3.162 µM): -0.0725 GR
- GR value ([1]; 10 µM): -0.173 GR
- GR value ([2]; 0.0001 µM): 0.829 GR
- GR value ([2]; 0.0003162 µM): 1.05 GR
- GR value ([2]; 0.001 µM): 1.01 GR
- GR value ([2]; 0.003162 µM): 0.843 GR
- GR value ([2]; 0.01 µM): 0.736 GR
- GR value ([2]; 0.03162 µM): 0.515 GR
- GR value ([2]; 0.1 µM): -0.0075 GR
- GR value ([2]; 0.3162 µM): -0.159 GR
- GR value ([2]; 1 µM): -0.44 GR
- GR value ([3]; 0.001 µM): 0.829 GR
- GR value ([3]; 0.003162 µM): 0.79 GR
- GR value ([3]; 0.01 µM): 0.713 GR
- GR value ([3]; 0.03162 µM): 0.688 GR
- GR value ([3]; 0.1 µM): 0.734 GR
- GR value ([3]; 0.3162 µM): 0.573 GR
- GR value ([3]; 1 µM): 0.378 GR
- GR value ([3]; 3.162 µM): 0.262 GR
- GR value ([3]; 10 µM): 0.0206 GR
- GR value ([4]; 0.001 µM): 0.4 GR
- GR value ([4]; 0.003162 µM): 0.267 GR
- GR value ([4]; 0.01 µM): 0.288 GR
- GR value ([4]; 0.03162 µM): 0.15 GR
- GR value ([4]; 0.1 µM): 0.195 GR
- GR value ([4]; 0.3162 µM): 0.0606 GR
- GR value ([4]; 1 µM): 0.0351 GR
- GR value ([4]; 3.162 µM): 0.19 GR
- GR value ([4]; 10 µM): 0.192 GR
- GR value ([5]; 0.001 µM): 0.0803 GR
- GR value ([5]; 0.003162 µM): 0.0736 GR
- GR value ([5]; 0.01 µM): 0.0488 GR
- GR value ([5]; 0.03162 µM): 0.076 GR
- GR value ([5]; 0.1 µM): 0.0075 GR
- GR value ([5]; 0.3162 µM): 0.118 GR
- GR value ([5]; 1 µM): -0.0042 GR
- GR value ([5]; 3.162 µM): 0.0879 GR
- GR value ([5]; 10 µM): -0.754 GR
- GR value ([6]; 0.0001 µM): 0.885 GR
- GR value ([6]; 0.0003162 µM): 0.884 GR
- GR value ([6]; 0.001 µM): 0.841 GR
- GR value ([6]; 0.003162 µM): 0.919 GR
- GR value ([6]; 0.01 µM): 1 GR
- GR value ([6]; 0.03162 µM): 0.677 GR
- GR value ([6]; 0.1 µM): -0.409 GR
- GR value ([6]; 0.3162 µM): -0.673 GR
- GR value ([6]; 1 µM): -0.403 GR
- GR value ([7]; 0.0003162 µM): 0.695 GR
- GR value ([7]; 0.001 µM): 0.582 GR
- GR value ([7]; 0.003162 µM): 0.689 GR
- GR value ([7]; 0.01 µM): 0.453 GR
- GR value ([7]; 0.03162 µM): 0.156 GR
- GR value ([7]; 0.1 µM): -0.0684 GR
- GR value ([7]; 0.3162 µM): -0.0381 GR
- GR value ([7]; 1 µM): -0.0455 GR
- GR value ([7]; 3.162 µM): -0.158 GR
- GR value ([8]; 0.0001 µM): 1.09 GR
- GR value ([8]; 0.0003162 µM): 1.07 GR
- GR value ([8]; 0.001 µM): 1.14 GR
- GR value ([8]; 0.003162 µM): 1.23 GR
- GR value ([8]; 0.01 µM): 0.742 GR
- GR value ([8]; 0.03162 µM): -0.651 GR
- GR value ([8]; 0.1 µM): -0.516 GR
- GR value ([8]; 0.3162 µM): -0.49 GR
- GR value ([8]; 1 µM): -0.497 GR
- GR50, 72 h [9]: 2.56 µM
- GR50, 72 h [10]: > 10 µM
- GR50, 72 h [11]: 0.0409 µM
- GR50, 72 h [12]: 0.387 µM
- GR50, 72 h [13]: 0.267 µM
- GR50, 72 h [14]: 0.345 µM
- GR50, 72 h [15]: 0.00586 µM
- GR50, 72 h [16]: 8.53 µM
- GR50, 72 h [17]: 0.00295 µM
- GR50, 72 h [18]: 4.54 µM
